From patent US10323041B2, “Bicyclic derivatives, a process for their preparation and pharmaceutical compositions containing them” (LES LABORATOIRES SERVIER, priority 2015, dated 2019)

Target: Mcl-1 protein (Homo sapiens, UniProt Q07820)
Assay: Inhibition of Mcl-1 by the fluorescence polarisation technique
Format: binding
Conditions: @ 50 μM test compound; partial inhibitors
Experimental: The relative binding potency of each compound was determined via fluorescence Polarisation (FP). The method utilised a Fluorescein labelled ligand Fluorescein-βAla-Ahx-[A-REIGAQLRRMADDLNAQY (SEQ ID NO: 1)]-OH; mw 2,765) which binds to the Mcl-1 protein (such that corresponds to the UniProtKB® primary accession number: Q07820) leading to an increased anisotropy measured in milli-polarisation (mP) units using a reader. The addition of a compound which binds competitively to the same site as the ligand will result in a greater proportion of unbound ligand in the system indicated by a decrease in mP units.
Method 1: An 11 point serial dilution of each compound was prepared in DMSO and 2 μl transferred into flat bottomed, low binding, 384-well plate (final DMSO concentration 5%). 38 μl of buffer (10 mM 4-(2-hydroxyethyl)-1-piperazineethanesulfonic acid [HEPES], 150 mM NaCl, 0.05% Tween 20, pH 7.4), containing the Fluorescein labelled ligand (final concentration 1 nM) and Mcl-1 protein (final concentration 5 nM) was then added.
(§1) Assay plates were incubated ˜2 hours at room temperature before FP was measured on a […] Synergy2 reader (Ex. 528 nm, Em. 640 nm, Cut off 510 nm) and mP units calculated. The binding of increasing doses of test compound was expressed as a percentage reduction in mP compared to a window established between ‘5% DMSO only’ and ‘100% inhibition’ controls. 11-point dose response curves were plotted with XL-Fit software using a 4-Parameter Logistic Model (Sigmoidal Dose-Response Model) and the inhibitory concentrations that gave a 50% reduction in mP (IC50) were determined. Results obtained using Method 1 are presented in Table 1 below; IC50 of Mcl-1 inhibition obtained using Method 1 are not underlined.
Method 2: An 11 point serial dilution of each compound was prepared in DMSO and 2 μl transferred into flat bottomed, low binding, 384-well plate (final DMSO concentration 5%). 38 μl of buffer (20 mM Na2HPO4, 1 mM EDTA, 50 mM NaCl, pH 7.4), containing the Fluorescein labelled ligand (final concentration 10 nM) and Mcl-1 protein (final concentration 10 nM) was then added.
as §1, with “inhibition’ controls (50 μM unlabelled ligand).” for “inhibition’ controls.”, “Method 2” for “Method 1”, “are” for “are not”

Mcl-1 protein, sequence (Q07820 whole entry): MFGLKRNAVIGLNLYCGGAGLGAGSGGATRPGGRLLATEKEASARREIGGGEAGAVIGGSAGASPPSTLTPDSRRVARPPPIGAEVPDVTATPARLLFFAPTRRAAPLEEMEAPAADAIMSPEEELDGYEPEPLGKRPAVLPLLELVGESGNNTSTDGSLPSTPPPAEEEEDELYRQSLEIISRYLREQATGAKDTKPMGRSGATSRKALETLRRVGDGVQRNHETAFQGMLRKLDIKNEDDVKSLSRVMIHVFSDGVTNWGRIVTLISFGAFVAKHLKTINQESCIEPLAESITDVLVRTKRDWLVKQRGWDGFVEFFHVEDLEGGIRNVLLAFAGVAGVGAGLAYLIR

Q: With `CCc1c(-c2cccc(Cl)c2C)c2c(NC(Cc3ccccc3)C(=O)O)ncnc2n1C` [Example 20, N-[(5Ra)-5-(3-chloro-2-methylphenyl)-6-ethyl-7-methyl-7H-pyrrolo[2,3-d]pyrimidin-4-yl]-D-phenylalanine] as the compound, how does the “percentage fluorescence polarization inhibition” value read?
A: The value was 64.8% @ 50 μM.

Q: For `CCc1c(-c2cccc(Cl)c2C)c2c(NC(Cc3ccccc3)C(=O)O)ncnc2n1CC1CC1` [Example 22, N-[(5Ra)-5-(3-chloro-2-methylphenyl)-7-(cyclopropylmethyl)-6-ethyl-7H-pyrrolo[2,3-d]pyrimidin-4-yl]-D-phenylalanine], which “percentage fluorescence polarization inhibition” value is on record?
A: The value was 74.2% @ 50 μM.

Q: Which “percentage fluorescence polarization inhibition” value does the source give for `CCc1c(-c2cccc(Cl)c2C)c2c(NC(Cc3ccccc3)C(=O)O)ncnc2n1CC(F)(F)F` [Example 28, N-[(5Ra)-5-(3-chloro-2-methylphenyl)-6-ethyl-7-(2,2,2-trifluoroethyl)-7H-pyrrolo[2,3-d]pyrimidin-4-yl]-D-phenylalanine] here?
A: The value was 63.25% @ 50 μM.

Same assay, conditions: @ 50 μM test compound; partial inhibitors; 50 µM

Q: Which “percentage fluorescence polarization inhibition” value does the source give for `CCc1c(-c2cccc(Cl)c2C)c2c(N[C@H](Cc3ccccc3)C(=O)O)ncnc2n1C(C)C` [Example 38, N-[(5Ra)-5-(3-chloro-2-methylphenyl)-6-ethyl-7-(propan-2-yl)-7H-pyrrolo[2,3-d]pyrimidin-4-yl]-D-phenylalanine] here?
A: Its value is 67% @ 50 μM.

Same assay, conditions: Method 1 (not underlined) or Method 2 (underlined); underlining not visible; first value where cell prints two; read-out: IC50 (M) Mcl-1 FP

Q: With `CCc1c(-c2cccc(Cl)c2C)c2c(NC(Cc3ccccc3)C(=O)O)ncnc2n1CCC1CCCC1` (single isomer, unassigned) [Example 30, N-[(5Ra)-5-(3-chloro-2-methylphenyl)-7-(2-cyclopentylethyl)-6-ethyl-7H-pyrrolo[2,3-d]pyrimidin-4-yl]-D-phenylalanine] as the compound, how does the IC50 read?
A: The IC50 was 6.4e-06 M.

Q: With `CCc1c(-c2cccc(Cl)c2C)c2c(NC(Cc3ccccc3)C(=O)O)ncnc2n1CCC1CCCC1` (single isomer, unassigned) [Example 31, N-[(5Sa)-5-(3-chloro-2-methylphenyl)-7-(2-cyclopentylethyl)-6-ethyl-7H-pyrrolo[2,3-d]pyrimidin-4-yl]-D-phenylalanine] as the compound, how does the IC50 read?
A: The IC50 was 7.9e-07 M.

Q: Which IC50 does the source give for `CCc1c(-c2cccc(Cl)c2C)c2c(NC(Cc3ccccc3)C(=O)O)ncnc2n1Cc1cccc2ccccc12` (single isomer, unassigned) [Example 32, N-[(5Ra)-5-(3-chloro-2-methylphenyl)-6-ethyl-7-(naphthalen-1-ylmethyl)-7H-pyrrolo[2,3-d]pyrimidin-4-yl]-D-phenylalanine] here?
A: Its IC50 is 3.5e-06 M.

Q: How did the IC50 turn out when `CCc1c(-c2cccc(Cl)c2C)c2c(NC(Cc3ccccc3)C(=O)O)ncnc2n1Cc1cccc2ccccc12` (single isomer, unassigned) [Example 33, N-[(5Sa)-5-(3-chloro-2-methylphenyl)-6-ethyl-7-(naphthalen-1-ylmethyl)-7H-pyrrolo[2,3-d]pyrimidin-4-yl]-D-phenylalanine] was run?
A: The IC50 was 2.6e-07 M.

Q: How did the IC50 turn out when `CCc1c(-c2cccc(Cl)c2C)c2c(NC(Cc3ccccc3)C(=O)O)ncnc2n1Cc1ccc(OC)cc1` (single isomer, unassigned) [Example 34, N-[(5Ra)-5-(3-chloro-2-methylphenyl)-6-ethyl-7-(4-methoxybenzyl)-7H-pyrrolo[2,3-d]pyrimidin-4-yl]-D-phenylalanine] was run?
A: Its IC50 is 6.4e-06 M.

Q: `CCc1c(-c2cccc(Cl)c2C)c2c(NC(Cc3ccccc3)C(=O)O)ncnc2n1Cc1ccc(OC)cc1` (single isomer, unassigned) [Example 35, N-[(5Sa)-5-(3-chloro-2-methylphenyl)-6-ethyl-7-(4-methoxybenzyl)-7H-pyrrolo[2,3-d]pyrimidin-4-yl]-D-phenylalanine] was tested. Which IC50 did it give?
A: Its IC50 is 2.9e-07 M.

Q: How did the IC50 turn out when `CCc1c(-c2cccc(Cl)c2C)c2c(NC(Cc3ccccc3)C(=O)O)ncnc2n1Cc1ccccc1` (single isomer, unassigned) [Example 36, N-[7-benzyl-(5Ra)-5-(3-chloro-2-methylphenyl)-6-ethyl-7H-pyrrolo[2,3-d]pyrimidin-4-yl]-D-phenylalanine] was run?
A: Its IC50 is 6.5e-06 M.

Q: For `CCc1c(-c2cccc(Cl)c2C)c2c(NC(Cc3ccccc3)C(=O)O)ncnc2n1Cc1ccccc1` (single isomer, unassigned) [Example 37, N-[7-benzyl-(5Sa)-5-(3-chloro-2-methylphenyl)-6-ethyl-7H-pyrrolo[2,3-d]pyrimidin-4-yl]-D-phenylalanine], which IC50 is on record?
A: The IC50 was 5.3e-07 M.

Q: How did the IC50 turn out when `C=CCCn1c(Br)c(-c2cccc(Cl)c2C)c2c(NC(Cc3ccccc3)C(=O)O)ncnc21` (single isomer, unassigned) [Example 41, N-[6-bromo-7-(but-3-en-1-yl)-(5Ra)-5-(3-chloro-2-methylphenyl)-7H-pyrrolo[2,3-d]pyrimidin-4-yl]-D-phenylalanine] was run?
A: The IC50 was 1.3e-05 M.

Q: `C=CCCn1c(Br)c(-c2cccc(Cl)c2C)c2c(NC(Cc3ccccc3)C(=O)O)ncnc21` (single isomer, unassigned) [Example 42, N-[6-bromo-7-(but-3-en-1-yl)-(5Sa)-5-(3-chloro-2-methylphenyl)-7H-pyrrolo[2,3-d]pyrimidin-4-yl]-D-phenylalanine] was tested. Which IC50 did it give?
A: Its IC50 is 4.5e-07 M.

Q: How did the IC50 turn out when `Cc1c(Cl)cccc1-c1c2n(c3ncnc(NC(Cc4ccccc4)C(=O)O)c13)CCCC2` (single isomer, unassigned) [Example 47, N-[(5Ra)-5-(3-chloro-2-methylphenyl)-6,7,8,9-tetrahydropyrimido[5,4-b]indolizin-4-yl]-D-phenylalanine] was run?
A: Its IC50 is 1.1e-05 M.

Q: How did the IC50 turn out when `Cc1c(Cl)cccc1-c1c2n(c3ncnc(NC(Cc4ccccc4)C(=O)O)c13)CCCC2` (single isomer, unassigned) [Example 48, N-[(5Sa)-5-(3-chloro-2-methylphenyl)-6,7,8,9-tetrahydropyrimido[5,4-b]indolizin-4-yl]-D-phenylalanine] was run?
A: The IC50 was 5.9e-06 M.

Q: `COc1ccccc1-c1nccc(COc2ccccc2CC(Oc2cccc3sc(-c4ccc(F)cc4)c(-c4ccc(OCCN5CCN(C)CC5)c(Cl)c4C)c23)C(=O)O)n1` (single isomer, unassigned) [Example 52] was tested. Which IC50 did it give?
A: Its IC50 is 1.6e-06 M.

Q: Which IC50 does the source give for `COc1ccccc1-c1nccc(COc2ccccc2CC(Oc2cccc3oc(-c4ccc(F)cc4)c(-c4ccc(OCCN5CCN(C)CC5)c(Cl)c4C)c23)C(=O)O)n1` (single isomer, unassigned) [Example 63] here?
A: Its IC50 is 1.7e-07 M.

Q: How did the IC50 turn out when `COc1ccccc1-c1nccc(COc2ccccc2CC(Oc2cccc3c2c(-c2ccc(OCCN4CCN(C)CC4)c(Cl)c2C)c(-c2ccc(F)cc2)n3C)C(=O)O)n1` (single isomer, unassigned) [Example 68] was run?
A: The IC50 was 1.2e-06 M.

Q: How did the IC50 turn out when `Cc1c(-c2c(-c3ccc(F)cc3)oc3ncnc(O[C@H](Cc4ccccc4OCc4ccnn4C(C)(C)C)C(=O)O)c23)ccc(OCCN(C)C)c1Cl` [Example 6, (2R)-3-{2-[(1-tert-butyl-1H-pyrazol-5-yl)methoxy]phenyl}-2-{[5-{3-chloro-4-[2-(dimethylamino)ethoxy]-2-methylphenyl}-6-(4-fluorophenyl)furo[2,3-d]pyrimidin-4-yl]oxy}propanoic acid] was run?
A: The IC50 was 8.9e-09 M.

Q: Which IC50 does the source give for `Cn1cc(-c2cccc3ccccc23)c2c(N[C@H](Cc3ccccc3)C(=O)O)ncnc21` [Example 10, N-[7-methyl-5-(naphthalen-1-yl)-7H-pyrrolo[2,3-d]pyrimidin-4-yl]-D-phenylalanine] here?
A: The IC50 was 1.8e-05 M.

Q: Which IC50 does the source give for `O=C(O)[C@@H](Cc1ccccc1)Nc1ncnc2[nH]cc(-c3cccc4ccccc34)c12` [Example 11, N-[5-(naphthalen-1-yl)-7H-pyrrolo[2,3-d]pyrimidin-4-yl]-D-phenylalanine] here?
A: The IC50 was 3.4e-05 M.

Q: For `CCc1c(-c2cccc(Cl)c2C)c2c(NC(Cc3ccccc3)C(=O)O)ncnc2n1C` [Example 21, N-[(5Sa)-5-(3-chloro-2-methylphenyl)-6-ethyl-7-methyl-7H-pyrrolo[2,3-d]pyrimidin-4-yl]-D-phenylalanine], which IC50 is on record?
A: Its IC50 is 8.7e-06 M.

Q: How did the IC50 turn out when `CCc1c(-c2cccc(Cl)c2C)c2c(NC(Cc3ccccc3)C(=O)O)ncnc2n1CC1CC1` [Example 23, N-[(5Sa)-5-(3-chloro-2-methylphenyl)-7-(cyclopropylmethyl)-6-ethyl-7H-pyrrolo[2,3-d]pyrimidin-4-yl]-D-phenylalanine] was run?
A: The IC50 was 6.8e-06 M.

Q: For `CCc1c(-c2cccc(Cl)c2C)c2c(NC(Cc3ccccc3)C(=O)O)ncnc2n1CC(F)(F)F` [Example 29, N-[(5Sa)-5-(3-chloro-2-methylphenyl)-6-ethyl-7-(2,2,2-trifluoroethyl)-7H-pyrrolo[2,3-d]pyrimidin-4-yl]-D-phenylalanine], which IC50 is on record?
A: Its IC50 is 8.5e-06 M.
